Measurements reported in patent publication US6939554B2, “Antimicrobial polymer” (Michigan Biotechnology Institute, priority 2002, dated 2005).

Test system: potential human pathogenic microorganisms
Assay: Antimicrobial activity assay, overall assessment across target microorganisms
Type: cell-based
Conditions: among the seven antimicrobials tested, in the polymer coatings
Procedure: The selection of target microorganisms for examining the antimicrobial activity of the coated polydimethylsiloxane substrates produced in the Control Example and Examples 1-16 was based on the potential human pathogenic microorganisms, which include gram positive bacteria, Bacillus subtilis and Staphylococcus aureus; gram negative bacteria, E. coli and Pseudomonas aeruginosa; and yeast, Candida albicans. Broth cultures were prepared for each microorganism. Bacteria, Bacillus subtilis, Staphylococcus aureus, E. coli and Pseudomonas aeruginosa were grown in 50 milliliters of sterile tryptic soy broth in a 500 milliliter baffle flask at 200 rpm. The cultures were grown at 37° C. overnight, and used for antimicrobial activity assay plates and stock culture. The yeast, Candida albicans was cultivated in 50 milliliters of sterile yeast malt broth in a 250 milliliter baffle flask at 25-28° C. for 1 day and used for the activity assay plates and stock culture.
Antimicrobial activity assay plates were then prepared. Yeast malt agar and tryptic soy agar were autoclaved for 20 minutes. The sterile molten agar was allowed to cool to 42-45° C. The prepared broth cultures of the target microorganisms were inoculated to a final concentration of 5% (v/v). […]

SMILES: [H]/N=C(\N/C(=N/[H])NCCCCCCNC(=N)NC(=N)Nc1ccc(Cl)cc1)Nc1ccc(Cl)cc1 [chlorhexidine, 1,6-bi(N^5-p-chlorophenyl-N^1-biguanido)hexane]
- Antimicrobial activity: ability to suppress the colonization and spectrum of action (in words): high activity
